In one experiment the target is T1, GST-tagged human recombinant active B-Raf (Δ1-415) (Homo sapiens, UniProt P15056).
T1 construct: GST; purchased Upstate/Millipore
T1 sequence (P15056 416-766, stated change not applied): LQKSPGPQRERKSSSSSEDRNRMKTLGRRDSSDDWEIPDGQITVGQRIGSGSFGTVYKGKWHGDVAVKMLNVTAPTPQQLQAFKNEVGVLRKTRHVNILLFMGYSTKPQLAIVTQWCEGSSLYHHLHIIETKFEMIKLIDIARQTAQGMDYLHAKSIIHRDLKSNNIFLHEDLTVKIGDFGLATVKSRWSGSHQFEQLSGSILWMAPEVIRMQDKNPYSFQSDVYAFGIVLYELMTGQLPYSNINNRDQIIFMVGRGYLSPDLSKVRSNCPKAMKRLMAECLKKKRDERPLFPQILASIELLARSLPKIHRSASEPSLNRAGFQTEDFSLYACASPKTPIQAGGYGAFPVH
Nature of the experiment: B-Raf kinase activity, IMAP coupled assay (B-Raf/MEK1/ERK2, fluorescence polarization). It counts as biochemical.
Details: not given
Text: (§1) In another assay the B-Raf kinase activity can be determined by using an IMAP assay (Immobilized Metal Assay for Phosphochemicals-based coupled assay). IMAP is a homogeneous fluorescence polarization (FP) assay based on affinity capture of phosphorylated peptide substrates. IMAP uses fluorescein-labeled peptide substrates that, upon phosphorylation by a protein kinase, bind to so called IMAP nanoparticles, which are derivatized with trivalent metal complexes. Such binding causes a change in the rate of the molecular motion of the peptide, and results in an increase in the FP value observed for the fluorescein label attached to the substrate peptide. In such an assay, B-Raf phosphorylates unactive MEK1. The phosphorylated MEK1 is capable of phosphorylating ERK2, which subsequently phosphorylates the fluorescein-labeled peptide substrate.
Determination of B-Raf Kinase Activity using an IMAP Assay
as §1, with “Inhibition of” for “In another assay the”, “was measured” for “can be determined by”, “Immobilized” for “IMAP assay (Immobilized”, “assay (IMAP).” for “assay).”, “this” for “such an”
Enzymes, substrate and ATP were diluted at all steps in Kinase Reaction buffer (10 mM Tris-HCl, 10 mM MgCl2, 0.01% Tween-20, 0.05% NaN3 pH 7.2, 1 mM DTT). The final volume at the kinase reaction step of the assay in the 384-well plate was 20 μl. The concentrations within brackets are final concentrations in the assay. B-Raf (GST-tagged human recombinant active B-Raf (Δ1-415), Upstate/Millipore; 0.2 U/ml) was pre-incubated with compounds or DMSO (1% final concentration) for 60 minutes at room temperature in the dark. Thereafter, MEK 1 (GST-tagged human recombinant unactive MEK1 (full-length); 64 ng/ml), ERK2 (GST-tagged human recombinant unactive ERK2 (full-length); 600 ng/ml), peptide substrate (Erktide, Molecular Devices; 50 nM) and ATP (50 μM) were added to the wells and the mix was incubated for another 60 minutes at 30° C. in the dark. Then, IMAP progressive binding buffer (75% 1× buffer A, 25% 1× buffer B, 1:900 Progressive Binding Reagent; Molecular Devices) was added followed by an incubation step of 60 minutes at room temperature in the dark. Finally, the FP signal was read on an Envision Multilabel reader (Perkin Elmer).
Turning to `Cc1ccc(NC(=O)c2cccc(C(C)(C)C#N)c2)cc1/N=C(\C#N)c1cc2nccnc2s1` [Example 56, (E)-N-(5-(3-(2-cyanopropan-2-yl)benzamido)-2-methylphenyl)thieno[2,3-b]pyrazine-6-carbimidoyl cyanide], the concentration for half-maximal inhibition (IC50) is under 100 nM.

Still in this experiment, the particulars now being: bounds also given as pIC50 (>6, >7, >8); 60 min pre-incubation with compound, ATP 50 μM; read-out: IC50, B-Raf IMAP assay.
For `Cc1ccc(NC(=O)c2cccc(C(C)(C)C#N)c2)cc1NC(=O)c1sc2nccnc2c1N` [Example 1, 7-amino-N-(5-(3-(2-cyanopropan-2-yl)benzamido)-2-methylphenyl)thieno[2,3-b]pyrazine-6-carboxamide], the half-maximal inhibitory concentration (IC50) is under 10 nM. Take `Cc1ccc(NC(=O)c2cccc(C(C)(C)C#N)c2)cc1NC(=O)c1cc2nc(Cl)cnc2s1` [Example 12, 2-chloro-N-(5-(3-(2-cyanopropan-2-yl)benzamido)-2-methylphenyl)thieno[2,3-b]pyrazine-6-carboxamide]: the IC50 is under 100 nM. On to `Cc1ccc(NC(=O)c2cccc(C(C)(C)C#N)c2)cc1NC(=O)c1cc2nc(-c3cncnc3)cnc2s1` [Example 22, N-(5-(3-(2-cyanopropan-2-yl)benzamido)-2-methylphenyl)-2-(pyrimidin-5-yl)thieno[2,3-b]pyrazine-6-carboxamide], for which the 50% inhibitory concentration (IC50) is under 10 nM. Consider `Cc1ccc(NC(=O)c2cccc(C(C)(C)C#N)c2)cc1NC(=O)c1cc2nc(-c3cnc(N(C)C)nc3)cnc2s1` [Example 23, N-(5-(3-(2-cyanopropan-2-yl)benzamido)-2-methylphenyl)-2-(2-(dimethylamino)pyrimidin-5-yl)thieno[2,3-b]pyrazine-6-carboxamide], for which the half-inhibitory concentration (IC50) was under 100 nM. Turning to `Cc1ccc(NC(=O)c2ccnc(N(C)C)c2)cc1NC(=O)c1cc2nccnc2s1` [Example 25, N-(5-(2-(dimethylamino)isonicotinamido)-2-methylphenyl)thieno[2,3-b]pyrazine-6-carboxamide], the half-maximal inhibitory concentration (IC50) is under 100 nM.

For the compound `Cc1ccc(NC(=O)c2ccc(CN3CCN(C)CC3)c(C(F)(F)F)c2)cc1NC(=O)c1cc2nccnc2s1` [Example 33, N-(2-methyl-5-(4-((4-methylpiperazin-1-yl)methyl)-3-(trifluoromethyl)benzamido)phenyl)thieno[2,3-b]pyrazine-6-carboxamide], the IC50 was under 100 nM. Take `Cc1ccc(NC(=O)c2cccc(-n3cccn3)c2)cc1NC(=O)c1cc2nccnc2s1` [Example 34, N-(5-(3-(1H-pyrazol-1-yl)benzamido)-2-methylphenyl)thieno[2,3-b]pyrazine-6-carboxamide]: the IC50 is under 100 nM. Same read-out and setting: for `Cc1ccc(NC(=O)c2cccc(C(C)(C)C#N)c2)cc1NCc1cc2nccnc2s1` [Example 47, 3-(2-cyanopropan-2-yl)-N-(4-methyl-3-(thieno[2,3-b]pyrazin-6-ylmethylamino)phenyl)benzamide] the value was under 100 nM; for `Cc1ccc(C(=O)Nc2cccc(C(F)(F)F)c2)cc1NC(=O)c1cc2nccnc2s1` [Example 48, N-(2-methyl-5-(3-(trifluoromethyl)phenylcarbamoyl)phenyl)-thieno[2,3-b]pyrazine-6-carboxamide], under 100 nM; for `CC(C)(C#N)c1cccc(C(=O)Nc2ccc(C#N)c(NC(=O)c3cc4nccnc4s3)c2)c1` [Example 52, N-(2-cyano-5-(3-(2-cyanopropan-2-yl)benzamido)phenyl)thieno[2,3-b]pyrazine-6-carboxamide], under 100 nM.

With `Cc1ccc(NC(=O)c2cccc(-c3ccsc3)c2)cc1NC(=O)c1cc2nccnc2s1` [Example 57, N-(2-methyl-5-(3-(thiophen-3-yl)benzamido)phenyl)thieno[2,3-b]pyrazine-6-carboxamide], the concentration for half-maximal inhibition (IC50) is under 100 nM.

For `Cc1ccc(NC(=O)c2cccc(C(C)(C)C#N)c2)cc1NC(=O)c1cc2[nH]c(=O)cnc2s1` [Example 58, N-(5-(3-(2-cyanopropan-2-yl)benzamido)-2-methylphenyl)-2-oxo-1,2-dihydrothieno[2,3-b]pyrazine-6-carboxamide], the IC50 is under 100 nM. The same measure, in the same setting: for `Cc1ccc(NC(=O)c2cccc(C(C)(C)C#N)c2)cc1NC(=O)c1cc2ncc(N(C)C)nc2s1` [Example 60, N-(5-(3-(2-cyanopropan-2-yl)benzamido)-2-methylphenyl)-3-(dimethylamino)thieno[2,3-b]pyrazine-6-carboxamide] the value was under 10 nM; for `CCOc1cnc2cc(C(=O)Nc3cc(NC(=O)c4cccc(C(C)(C)C#N)c4)ccc3C)sc2n1` [Example 71, N-(5-(3-(2-cyanopropan-2-yl)benzamido)-2-methylphenyl)-3-ethoxythieno[2,3-b]pyrazine-6-carboxamide], under 100 nM. In the case of `Cc1ccc(C(=O)Nc2cccc(C(F)(F)F)c2)cc1NC(=O)c1sc2nccnc2c1N` [Example 74, 7-amino-N-(2-methyl-5-(3-(trifluoromethyl)phenylcarbamoyl)phenyl)thieno[2,3-b]pyrazine-6-carboxamide], the half-inhibitory concentration (IC50) is under 100 nM. Consider `CCOc1cnc2sc(C(=O)Nc3cc(NC(=O)c4cccc(C(C)(C)C#N)c4)ccc3C)cc2n1` [Example 76, N-(5-(3-(2-cyanopropan-2-yl)benzamido)-2-methylphenyl)-2-ethoxythieno[2,3-b]pyrazine-6-carboxamide], for which the IC50 was under 100 nM.

The test system of another experiment is phosphorylation of ERK1/2 in A375 cells containing mutant B-Raf (V600E). Nature of the experiment: Phospho-ERK FACE assay in A375 (B-Raf mutated) melanoma cell line. It counts as cell-based. The following applies: Homo sapiens, A-375; A375 cells, 2 hours incubation, between 1 μM and 100 nM (6<pIC50<7); read-out: IC50, A375 melanoma phospho-ERK assay. On the procedure: The B-Raf activity can also be determined in a B-Raf mutated melanoma cell line, such as the A375 cell line. Inhibition of phosphorylation of ERK1/2 can be measured using a Fast Activated Cell-based ELISA (FACE) from Active Motif (Carlsbad, U.S.A., CA). E.g. A375 cells, which are cells containing a mutant form of B-Raf (V600E) and thus contain high levels of phosphorylated ERK, can be incubated with Raf inhibitors. Then cells can be incubated with anti-phospho-ERK antibody and subsequently with horse radish peroxidase (HRP)-labeled secondary antibody. Finally, chemiluminescence reagents can be added, which react with HRP, to give a luminescence signal.
Determination of B-Raf Activity Using a A375 (B-Raf mutated) Melanoma Cell Line (Phospho-ERK FACE Assay)
Inhibition of phosphorylation of ERK1/2 was measured using a Fast Activated Cell-based ELISA (FACE) from Active Motif (Carlsbad, U.S.A., CA). Briefly, A375 cells, which are cells containing a mutant form of B-Raf (V600E) and thus contain high levels of phosphorylated ERK, were incubated for 2 hours with Raf inhibitors. Then, cells were fixed with paraformaldehyde, washed and following quenching and blocking, incubated with anti-phospho-ERK antibody, and as a control, on a separate plate, with ERK antibody. After washing and removal of the primary antibodies, the fixed cells were incubated with horse radish peroxidase (HRP)-labeled secondary antibody. Finally, chemiluminescence reagents were added, which react with HRP, to give a luminescence signal.
Detailed protocol: A375 cells were cultured in DMEM/F12 (Dulbecco's Modified Eagle Medium Nutrient Mixture F-12) (Invitrogen), supplemented with 10% fetal bovine serum (FBS) (Biowhittaker), 100 U/ml penicillin G and 100 μg/ml streptomycin (Gibco). For the phospho ERK assay, cells were seeded at a density of 15,000 cells/well in 100 μl culture medium in 96-well plates and incubated in a humidified atmosphere at 5% CO2 and 37° C. After 24 hours, cells were washed with DMEM/F12 supplemented with 0.1% FBS (assay medium 120 μl of assay medium was added and the plates were incubated overnight in a humidified atmosphere at 5% CO2 and 37° C. The next day, the assay medium was removed and compounds diluted in assay medium were added to the cells. Final DMSO concentration in the assay was 1%. After 2 hours incubation, cells were fixed by replacing the assay medium with 100 μl of 4% formaldehyde (Bio-Connect, Huissen, The Netherlands) in PBS. After 20 minutes of incubation at room temperature, cells were washed three times with 200 μl wash buffer (0.1% (vol/vol) Triton X-100 in PBS from the FACE kit) followed by an incubation of 20 minutes with 100 μl quenching buffer, containing 1% (vol/vol) hydrogen peroxide (Thermo Fisher Scientific) and 0.1% (vol/vol) sodium azide (Sigma-Aldrich) in phosphate-buffered saline. Cells were washed two times with wash buffer, incubated for 1 hour with 100 μl antibody blocking buffer from the kit and washed two times again. 40 μl of diluted antibody against phosphorylated ERK1/2 (1:500 from the FACE kit) was added and incubated overnight at 4° C. The phospho-ERK antibody has been raised against a synthetic phospho-peptide corresponding to residues Thr202 and Tyr204 of human ERK1 and Thr185 and Tyr187 of human ERK2. For the detection of total ERK, antibody against ERK1 and ERK2 (1:500 from the FACE kit) was added. The excessive primary antibody was washed out, and 100 μl diluted HRP-conjugated anti-rabbit IgG (1:2000 from the FACE kit) was added and incubated for 1 hour at room temperature. Secondary antibody was removed and cells were washed 3 times with wash buffer and twice with PBS. 50 μl per well of FACE chemiluminescent working solution was added. Chemiluminescence was measured on an Envision Multilabel reader.
For `CNc1cnc2cc(C(=O)Nc3cc(NC(=O)c4cccc(C(C)(C)C#N)c4)ccc3C)sc2n1` [Example 59, N-(5-(3-(2-cyanopropan-2-yl)benzamido)-2-methylphenyl)-3-(methylamino)thieno[2,3-b]pyrazine-6-carboxamide], the IC50 fell in the range of 100 to 1000 nM.

Staying with this experiment, now noted: Homo sapiens, A-375; A375 cells, 2 hours incubation; class given as below 100 nM (pIC50>7); read-out: IC50, A375 melanoma phospho-ERK assay.
Turning to `Cc1ccc(NC(=O)c2cccc(C(C)(C)C#N)c2)cc1NC(=O)c1sc2nccnc2c1N` [Example 1, 7-amino-N-(5-(3-(2-cyanopropan-2-yl)benzamido)-2-methylphenyl)thieno[2,3-b]pyrazine-6-carboxamide], the IC50 is under 100 nM.

Broadly, the IC50 is the concentration needed to halve the response being measured.

Source of the values: US8669256B2, “Substituted thieno[2,3-b]pyrazine compounds as modulators of B-Raf kinase activity” (Merck Sharp & Dohme B.V., priority 2010, dated 2014).
